How the values were obtained:
Human HDAC7 = target: T1, Human HDAC7 (Homo sapiens, UniProt Q8WUI4); assay: In vitro HDAC7 inhibition, fluorogenic peptide assay; format: biochemical; conditions: for IC50: read-out: IC50 (nM) of enzyme activity HDAC7
T1 construct: Amino acids 518-end with N-terminal GST tag, MW=78 kDa; GST (N); purchased BioMol, Hamburg, Germany
T1 sequence (Q8WUI4 518-952 limits assumed): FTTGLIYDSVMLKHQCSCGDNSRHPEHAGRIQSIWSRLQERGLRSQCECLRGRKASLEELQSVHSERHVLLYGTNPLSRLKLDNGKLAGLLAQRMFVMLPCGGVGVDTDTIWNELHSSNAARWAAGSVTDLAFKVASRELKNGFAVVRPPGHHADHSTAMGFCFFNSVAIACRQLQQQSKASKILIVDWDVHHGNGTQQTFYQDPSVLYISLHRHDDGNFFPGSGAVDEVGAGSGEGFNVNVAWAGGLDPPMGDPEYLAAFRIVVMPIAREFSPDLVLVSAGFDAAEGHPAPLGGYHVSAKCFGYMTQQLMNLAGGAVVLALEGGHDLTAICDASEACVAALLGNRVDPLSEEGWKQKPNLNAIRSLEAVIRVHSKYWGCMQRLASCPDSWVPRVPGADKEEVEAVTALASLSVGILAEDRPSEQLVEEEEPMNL
Protocol: All HDAC assays were performed using acetylated AMC-labeled peptide substrate: • Substrate for isoforms HDAC1, 2, 3, 4, 5, 6, 7, 9, 10, 11 and HeLa nuclear extract assays: Acetylated fluorogenic peptide from p53 residues 379-382 (RHKKAc) (BioMol. Cat. # KI-104). • Substrate for HDAC8 assays: Acetylated fluorogenic peptide from p53 residues 379-382 (RHKAcKAc) (BioMol. Cat. # KI-178).
Enzymes: • HDAC1 assay: 75 nM Human HDAC1 (GenBank Accession No. NM_004964): Full length with C-terminal GST tag, MW=79.9 kDa, expressed by baculovirus expression system in Sf9 cells (BioMol. Cat. # SE-456). • HDAC2 assay: 5 nM Human HDAC2 (GenBank Accession No. Q92769): Full length with C-terminal His tag, MW=60 kDa, expressed by baculovirus expression system in Sf9 cells (BioMol. Cat. # SE-500). • HDAC3 assay: 2.3 nM Human HDAC3/NcoR2 (GenBank Accession No. NM_003883 for HDAC3, GenBank Accession No.NM_006312 for NcoR2): Complex of human HDAC3, full length with C-terminal His tag, MW=49.7 kDa, and human NCOR2, N-terminal GST tag, MW=39 kDa, co-expressed in baculovirus expression system (BioMol. Cat. # SE-507). • HDAC4 assay: 266 nM Human HDAC4 (GenBank Accession No. NM_006037): Amino acids 627-1085 with N-terminal GST tag, MW=75.2 kDa, expressed in baculovirus expression system (BioMol, Hamburg, Germany). • HDAC5 assay: 588 nM Human HDAC5 (GenBank Accession No. NM_001015053): Full length with Nterminal GST tag, MW=150 kDa, expressed by baculovirus expression system in Sf9 cells (BioMol, Hamburg, Germany). • HDAC6 assay: 13 nM Human HDAC6 (GenBank Accession No. BC069243): Full length with N-terminal GST tag, MW=159 kDa, expressed by baculovirus expression system in Sf9 cells (BioMol. Cat. # SE-508). • HDAC7 assay: 962 nM Human HDAC7 (GenBank Accession No. AY302468): Amino acids 518-end with N-terminal GST tag, MW=78 kDa, expressed in baculovirus expression system (BioMol, Hamburg, Germany). • HDAC8 assay: 119 nM Human HDAC8 (GenBank Accession No. NM018486): Full length, MW=42 kDa, expressed in an E. coli expression system (BioMol. […]
The reactions were carried out in a 96-well microplate for fluorometry in a 50 μl reaction volume. […] The reaction was allowed to develop for 45 minutes at 30° C. with 5% CO2; then the fluorescent signal was measured with an excitation wavelength at 360 nm and an emission wavelength at 460 nm in a microplate-reading fluorometer (GeminiXS; Molecular Devices, Sunnyvale, Calif.). […] IC50 was calculated by fitting the experimental data to a dose-response curve. […]

143b = assay: Cancer cell growth inhibition (CellTiter-Glo), 143b; format: cell-based; conditions: Homo sapiens, Osteosarcoma, 72 h treatment
Protocol: Cell culture-based assays were used to evaluate the ability of compounds of the invention to inhibit cancer cell growth.
Cells were obtained from the American Type Culture Collection (ATCC). Cells were cultured at 37° C. with 5% CO2 in the appropriate growth medium (see table below), and harvested respectively during the logarithmic growth period and counted with hemocytometer. The cell viability was examined by trypan blue exclusion. Cell concentrations were adjusted to 5.56×10^4 cells/ml with respective medium.
Stock solutions of test compounds and positive drugs Doxorubicin (Zhejiang, Haizheng, China), Cisplatin (Nanjing Zhiyao, China) and Mitomycin (Zhejiang, Haizheng, China) were prepared in dimethyl sulphoxide (DMSO) or PBS at 20 mM.
In order to determine the IC50 for each compound, experiments were carried out in 96-well plates and the cell lines seeded at a density of 5,000 cells/well. […] All treatments were performed in triplicate. 10 μl of drug solution was added to each well and incubated for 72 hours. At the end of the incubation, 100 μl of the CellTiter-Glo Reagent were added to each well and the contents were mixed for 2 munites on an orbital shaker to induce cell lysis. The plate was incubated at room temperature for 10 minutes to stabilize luminiscent signal, and luminiscent was recorded. […] In order to calculate IC50 values, dose-responsive curves were fitted using nonlinear regression model with a sigmoidal dose response.

Row | Selectivity against HDAC6 (IC50 HDACx/IC50 HDAC6) HDAC7 (Human HDAC7; IC50 HDAC7/IC50 HDAC6) | IC50 (Human HDAC7) [nM] | IC50 (143b) [µM] | SMILES
1 | 70.3 | 1410 |  | COc1ccc(-c2cc(-c3ccccc3)[nH]c2C(=O)NCCCCCC(=O)NO)cc1 [Compound A, N-[6-(hydroxyamino)-6-oxohexyl]-3-(4-methoxyphenyl)-5-phenyl-1H-pyrrole-2-carboxamide, reference compound]
2 |  |  | 1.71 | O=C(CCCCCNC(=O)c1[nH]c(-c2ccccc2)cc1-c1ccc(O)cc1)NO [Example 1, N-(6-(hydroxyamino)-6-oxohexyl)-3-(4-hydroxyphenyl)-5-phenyl-1H-pyrrole-2-carboxamide]
3 |  |  | 5.38 | O=C(CCCCCNC(=O)c1[nH]c(-c2ccc(O)cc2)cc1-c1ccccc1)NO [Example 2, N-(6-(hydroxyamino)-6-oxohexyl)-5-(4-hydroxyphenyl)-3-phenyl-1H-pyrrole-2-carboxamide]
4 |  | 72 | 2.91 | O=C(CCCCCNC(=O)c1[nH]c(-c2ccc(O)cc2)cc1-c1ccoc1)NO [Example 5, 3-(3-furyl)-N-(5-(hydroxycarbamoyl)pentyl)-5-(4-hydroxy-phenyl)-1H-pyrrole-2-carboxamide]
5 |  | 318 | 2.72 | O=C(CCCCCNC(=O)c1[nH]c(-c2ccc(O)cc2)cc1-c1ccsc1)NO [Example 6, N-(5-(hydroxycarbamoyl)pentyl)-5-(4-hydroxyphenyl)-3-(3-thienyl)-1H-pyrrole-2-carboxamide]
